Values quoted from earlier work, collected in patent US20120148652A1, “METHOD FOR INCORPORATING MEDICINE INTO A PLANT” (EARTH CHEMICAL CO., LTD., priority 2009, published 2012).

Settings: 20° C., reference value

SMILES | vapor pressure
CC(C)=CC1C(C(=O)OC(C#N)c2cccc(Oc3ccccc3)c2)C1(C)C (stereo not drawn) [d,d-T-cyphenothrin] | < 1.33×10^−7 hPa
CC1(C)[C@H](C=C(Cl)Cl)[C@H]1C(=O)OCc1c(F)c(F)cc(F)c1F [transfluthrin, Transfluthrin] | 4.0×10^−6 hPa
